Test results published in ChEMBL document CHEMBL1155913, “Novel anticancer agents, kayeassamins A and B from the flower of Kayea assamica of Myanmar” (2008).
Active and inactive are the calls of the source. The rule behind the calls is not given here.

Tests used:
[1] = test system: PANC-1; assay: Cytotoxicity against human PANC1 cells under nutrient-deprived medium after 24 hrs by serial dilution method; assay type: functional
[2] = test system: PANC-1; assay: Selectivity index, ratio of PC100 for human PANC1 cells under nutrient-rich to nutrient-deprived medium; assay type: functional
[3] = test system: PANC-1; assay: Induction of apoptosis in human PANC1 cells under nutrient-deprived medium assessed as morphological changes at 1 uM after 24 hrs by phase-contrast microscopy; assay type: functional, cell-based
[4] = test system: PANC-1; assay: Inhibition of human PANC1 cells migration to pipette tip-induced wounds under nutrient-rich medium at 1 uM after 72 hrs by phase-contrast microscopy; assay type: functional, cell-based

## COc1cc(C[C@H]2C(=O)OC[C@@H]2Cc2ccc(OC)c(OC)c2)ccc1O [ARCTIGENIN]
[1]
  Cytotoxicity: 1 µM

## CCCC(=O)c1c(O)c(C/C=C(\C)CCC=C(C)C)c(O)c2c([C@@H](O)CC)cc(=O)oc12 [KAYEASSAMIN A]
[1]
  Cytotoxicity: 1 µM
[2]
  Ratio: 256
[3]
  Activity: Active
[4]
  Activity: inactive

## CCCC(=O)c1c(O)c(C/C=C(\C)CCC=C(C)C)c2oc(=O)cc([C@@H](O)CC)c2c1O [KAYEASSAMIN B]
[1]
  Cytotoxicity: 1 µM
[2]
  Ratio: 256
[3]
  Activity: Active
[4]
  Activity: inactive
